Data published in US20080280920A1, “Plasminogen Activator Inhibitor-1 Inhibitors” (priority 2005, published 2008).

How the values were obtained:
[1] = system: NCI-H322M; assay: NCI anticancer screen, NCI-H322M; format: cell-based, human; conditions: Non-Small Cell Lung, 48 h
[2] = system: MALME-3M; assay: NCI anticancer screen, MALME-3M; format: cell-based, human; conditions: Melanoma, 48 h
[3] = system: NCI-H460; assay: NCI anticancer screen, NCI-H460; format: cell-based, human; conditions: NCI-H460, Non-Small Cell Lung, 48 h
[4] = system: PC-3; assay: NCI anticancer screen, PC-3; format: cell-based, human; conditions: PC-3, Prostate, 48 h
[5] = system: UO-31; assay: NCI anticancer screen, UO-31; format: cell-based, human; conditions: UO-31, Renal, 48 h
[6] = molecular target: T1, wildtype human PAI-1 (Homo sapiens, UniProt P05121); assay: PAI-1/uPA assay (residual uPA activity, fluorescent substrate SpectroFluor); format: biochemical; conditions: for Percent PAI-1 inhibition: at the concentration given, percent of activity of untreated PAI-1; for Conc. of compound required for PAI-1 inhibition: concentration giving the percent inhibition, 6 nM PAI-1, 8 nM uPA
T1 construct: purchased Molecular Innovations Lot# HWT-804
Outline: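 Wildtype human PAI-1 (6 nM) preincubated 15-20 min at RT with compound (10 nM to 100 μM final) in HEPES buffer pH 6.6, then with uPA (8 nM, HMW) 5 min. SpectroFluor (0.1 mM) cleavage followed 30 min at 37 °C (ex 360/em 440 nm); PAI-1 activity expressed as % of untreated PAI-1.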

[7] = system: MOLT-4; assay: NCI anticancer screen, MOLT-4; format: cell-based, human; conditions: MOLT-4, Leukemia, 48 h
[8] = system: MDA-MB-435; assay: NCI anticancer screen, MDA-MB-435; format: cell-based, human; conditions: MDA-MB-435, Breast, 48 h
[9] = system: HCT-116; assay: NCI anticancer screen, HCT-116; format: cell-based, human; conditions: HCT-116, Colon, 48 h
[10] = system: SK-OV-3; assay: NCI anticancer screen, SK-OV-3; format: cell-based, human; conditions: SK-OV-3, Ovarian, 48 h
[11] = system: SR; assay: NCI anticancer screen, SR; format: cell-based, human; conditions: Leukemia, 48 h
[12] = system: LOX IMVI; assay: NCI anticancer screen, LOX IMVI; format: cell-based, human; conditions: Melanoma, 48 h
[13] = system: SW-620; assay: NCI anticancer screen, SW-620; format: cell-based, human; conditions: SW-620, Colon, 48 h
[14] = system: ACHN; assay: NCI anticancer screen, ACHN; format: cell-based, human; conditions: Renal, 48 h
[15] = system: HCC-2998; assay: NCI anticancer screen, HCC-2998; format: cell-based, human; conditions: HCC-2998, Colon, 48 h
[16] = system: SNB-75; assay: NCI anticancer screen, SNB-75; format: cell-based, human; conditions: SNB-75, CNS, 48 h
[17] = system: SK-MEL-2; assay: NCI anticancer screen, SK-MEL-2; format: cell-based, human; conditions: SK-MEL-2, Melanoma, 48 h
[18] = system: U251; assay: NCI anticancer screen, U251; format: cell-based, human; conditions: U251, CNS, 48 h
[19] = system: HL-60(TB); assay: NCI anticancer screen, HL-60(TB); format: cell-based, human; conditions: Leukemia, 48 h
[20] = system: NCI/ADR-RES; assay: NCI anticancer screen, NCI/ADR-RES; format: cell-based, human; conditions: Breast, 48 h
[21] = system: 60 different human cancer cell lines; assay: NCI in vitro anticancer screen (whole panel); format: cell-based; conditions: for growth and proliferation of human primary cancer cell-lines (in words): NCI screen, 48 h
[22] = system: NCI-H226; assay: NCI anticancer screen, NCI-H226; format: cell-based, human; conditions: NCI-H226, Non-Small Cell Lung, 48 h
[23] = system: UACC-257; assay: NCI anticancer screen, UACC-257; format: cell-based, human; conditions: Homo sapiens; UACC-257, Melanoma, 48 h
[24] = Homo sapiens, read-out: LC50 (the source's name)

T1 sequence (P05121 24-402): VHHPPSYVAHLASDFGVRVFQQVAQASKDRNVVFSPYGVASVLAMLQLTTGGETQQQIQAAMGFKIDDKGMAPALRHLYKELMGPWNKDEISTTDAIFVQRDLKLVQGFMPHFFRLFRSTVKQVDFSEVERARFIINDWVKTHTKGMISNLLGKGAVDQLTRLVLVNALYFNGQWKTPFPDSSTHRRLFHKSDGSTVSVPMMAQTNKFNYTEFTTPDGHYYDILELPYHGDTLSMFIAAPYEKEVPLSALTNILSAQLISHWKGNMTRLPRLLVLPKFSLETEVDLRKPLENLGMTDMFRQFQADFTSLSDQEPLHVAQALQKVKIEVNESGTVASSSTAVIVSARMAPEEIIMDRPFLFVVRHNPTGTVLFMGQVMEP

Which GI50 ([1]; Homo sapiens) does the source give for `CCOC(=O)c1ccc(CNCc2cc(CN3CCN(c4ccccn4)CC3)c(O)c(OC)c2)cc1` [Compound Q012135T] here?
The GI50 was 33.8 µM.

What about the CC50 [1, 24] of the same compound?
The CC50 was > 100 µM.

And the TGI [1]?
The TGI was >100 µM.

And the GI50 ([2]; Homo sapiens)?
Its GI50 is 20.1 µM.

And the CC50 [2, 24]?
The CC50 was 74.1 µM.

What about the TGI [2] of the same compound?
Its TGI is 38.6 µM.

And the GI50 ([3]; Homo sapiens)?
The GI50 was 20.2 µM.

What about the CC50 [3, 24] of the same compound?
The CC50 was 70.4 µM.

What about the TGI [3] of the same compound?
Its TGI is 37.7 µM.

And the GI50 ([4]; Homo sapiens)?
Its GI50 is 17.9 µM.

And the CC50 [4, 24]?
Its CC50 is > 100 µM.

And the TGI [4]?
The TGI was 45.4 µM.

What about the GI50 ([5]; Homo sapiens) of the same compound?
Its GI50 is 11.5 µM.

What about the CC50 [5, 24] of the same compound?
The CC50 was 61.6 µM.

What about the TGI [5] of the same compound?
The TGI was 26.6 µM.

And the “Percent PAI-1 inhibition” value [6]?
The value was 8.

What about the “Conc. of compound required for PAI-1 inhibition” value [6] of the same compound?
Its value is 100 µM.

And the GI50 ([7]; Homo sapiens)?
Its GI50 is 10.1 µM.

And the CC50 [7, 24]?
The CC50 was 10.1 µM.

What about the TGI [7] of the same compound?
The TGI was 31.3 µM.

And the GI50 ([8]; Homo sapiens)?
The GI50 was 16.9 µM.

And the CC50 [8, 24]?
The CC50 was 87.1 µM.

What about the TGI [8] of the same compound?
Its TGI is 38.4 µM.

What about the TGI [9] of the same compound?
The TGI was >100 µM.

What about the GI50 ([9]; Homo sapiens) of the same compound?
The GI50 was 18.6 µM.

And the LC50 (50% lethal concentration) ([9]; Homo sapiens)?
Its LC50 (50% lethal concentration) is > 100 µM.

And the GI50 ([10]; Homo sapiens)?
The GI50 was 24.9 µM.

What about the CC50 [10, 24] of the same compound?
The CC50 was > 100 µM.

And the TGI [10]?
Its TGI is 56.7 µM.

What about the GI50 ([11]; Homo sapiens) of the same compound?
Its GI50 is 4.18 µM.

What about the CC50 [11, 24] of the same compound?
The CC50 was 4.18 µM.

What about the TGI [11] of the same compound?
Its TGI is 20.6 µM.

What about the GI50 ([12]; Homo sapiens) of the same compound?
Its GI50 is 15.8 µM.

And the LC50 (concentration giving 50% net cell kill) ([12]; Homo sapiens)?
Its LC50 (concentration giving 50% net cell kill) is 63.4 µM.

And the TGI [12]?
The TGI was 31.7 µM.

What about the GI50 ([13]; Homo sapiens) of the same compound?
The GI50 was 18.5 µM.

And the CC50 [13, 24]?
The CC50 was 68 µM.

And the TGI [13]?
Its TGI is 35.5 µM.

What about the GI50 ([14]; Homo sapiens) of the same compound?
Its GI50 is 29.9 µM.

What about the CC50 [14, 24] of the same compound?
Its CC50 is > 100 µM.

And the TGI [14]?
The TGI was >100 µM.

And the TGI [15]?
The TGI was 31.6 µM.

And the GI50 ([15]; Homo sapiens)?
The GI50 was 15.3 µM.

What about the LC50 ([15]; Homo sapiens) of the same compound?
Its LC50 is 65.1 µM.

What about the GI50 ([16]; Homo sapiens) of the same compound?
Its GI50 is 17.6 µM.

And the LC50 (concentration killing 50% of cells) ([16]; Homo sapiens)?
The LC50 (concentration killing 50% of cells) was 59.2 µM.

And the TGI [16]?
Its TGI is 32.2 µM.

And the GI50 ([17]; Homo sapiens)?
Its GI50 is 17.2 µM.

And the CC50 [17, 24]?
The CC50 was 79.5 µM.

What about the TGI [17] of the same compound?
The TGI was 36.9 µM.

And the GI50 ([18]; Homo sapiens, U-251)?
Its GI50 is 15.8 µM.

What about the CC50 ([18]; Homo sapiens, U-251, read-out: LC50 (the source's name)) of the same compound?
Its CC50 is 65.7 µM.

What about the TGI [18] of the same compound?
The TGI was 32.2 µM.

And the GI50 ([19]; Homo sapiens)?
Its GI50 is 13.1 µM.

What about the CC50 [19, 24] of the same compound?
The CC50 was 13.1 µM.

And the TGI [19]?
The TGI was 33.7 µM.

And the TGI [20]?
The TGI was 96.9 µM.

And the GI50 ([20]; Homo sapiens)?
Its GI50 is 27.6 µM.

And the CC50 [20, 24]?
The CC50 was > 100 µM.

And the “growth and proliferation of human primary cancer cell-lines (in words)” value [21]?
The value was “inhibited growth and proliferation”.

What about the “cytostatic / cytotoxic effects on human cancer cell-lines (in words)” value ([21]; low micromolar concentrations, leukemia, melanoma, colon and central nervous system cell-lines) of the same compound?
The value was “cytostatic and cytotoxic effects”.

And the GI50 ([22]; Homo sapiens)?
Its GI50 is 19.8 µM.

And the LC50 (concentration giving 50% net cell kill) ([22]; Homo sapiens)?
The LC50 (concentration giving 50% net cell kill) was 91.5 µM.

And the TGI [22]?
The TGI was 42.6 µM.

How did the GI50 ([1]; Homo sapiens) turn out when `CCOC(=O)[C@H](Cc1ccccc1)NCc1cc(CN2CCN(c3ccccn3)CC2)c(O)c(OC)c1` [Compound Q012147T] was run?
Its GI50 is 49.4 µM.

What about the GI50 ([2]; Homo sapiens) of the same compound?
Its GI50 is 99.9 µM.

What about the GI50 ([3]; Homo sapiens) of the same compound?
Its GI50 is 60.6 µM.

What about the GI50 [23] of the same compound?
The GI50 was 67.3 µM.

And the GI50 ([4]; Homo sapiens)?
The GI50 was 49.8 µM.

And the GI50 ([5]; Homo sapiens)?
Its GI50 is 94.1 µM.

And the “Conc. of compound required for PAI-1 inhibition (result in words)” value ([6]; within the concentration range tested)?
The value was “No inhibition”.

And the GI50 ([7]; Homo sapiens)?
Its GI50 is 3.13 µM.

And the GI50 ([8]; Homo sapiens)?
The GI50 was 83.2 µM.

And the GI50 ([9]; Homo sapiens)?
The GI50 was 34.4 µM.

And the GI50 ([10]; Homo sapiens)?
The GI50 was > 100 µM.

What about the GI50 ([11]; Homo sapiens) of the same compound?
Its GI50 is 0.32 µM.

And the GI50 ([12]; Homo sapiens)?
The GI50 was > 100 µM.

What about the GI50 ([13]; Homo sapiens) of the same compound?
The GI50 was > 100 µM.

And the GI50 ([14]; Homo sapiens)?
The GI50 was 78.2 µM.

And the GI50 ([15]; Homo sapiens)?
Its GI50 is > 100 µM.

And the GI50 ([16]; Homo sapiens)?
The GI50 was 56.6 µM.

And the GI50 ([17]; Homo sapiens)?
Its GI50 is > 100 µM.

What about the GI50 ([18]; Homo sapiens, U-251) of the same compound?
The GI50 was 61.9 µM.

And the GI50 ([19]; Homo sapiens)?
The GI50 was 37.5 µM.

What about the GI50 ([20]; Homo sapiens) of the same compound?
Its GI50 is > 100 µM.

And the “growth and proliferation of human primary cancer cell-lines (in words)” value [21]?
Its value is “inhibited growth and proliferation”.

And the GI50 ([22]; Homo sapiens)?
Its GI50 is > 100 µM.

Which results are given for `CC(C)(C)OC(=O)Nc1ccc(O)c(C(=O)NCCOC(=O)NCCNC(=O)c2cc(OCc3ccccc3)ccc2OCc2ccccc2)c1` [Compound Q012052, 2-[5-(BOC-amino)-2-hydroxybenzoylamino]ethyl 2-[2,5-bis-(benzyl-oxy)benzoylamino]ethylcarbamate]?
GI50 ([1]; Homo sapiens): > 100 µM; GI50 ([2]; Homo sapiens): > 100 µM; GI50 ([3]; Homo sapiens): > 100 µM; GI50 [23]: 15.6 µM; GI50 ([4]; Homo sapiens): 24.9 µM; GI50 ([5]; Homo sapiens): 19.9 µM; Percent PAI-1 inhibition [6]: 45; Conc. of compound required for PAI-1 inhibition [6]: 0.05 µM; GI50 ([7]; Homo sapiens): 4.05 µM; GI50 ([8]; Homo sapiens): > 100 µM; GI50 ([9]; Homo sapiens): > 100 µM; GI50 ([10]; Homo sapiens): > 100 µM; GI50 ([11]; Homo sapiens): 89.8 µM; GI50 ([12]; Homo sapiens): > 100 µM; GI50 ([13]; Homo sapiens): > 100 µM; GI50 ([14]; Homo sapiens): > 100 µM; GI50 ([15]; Homo sapiens): > 100 µM; GI50 ([16]; Homo sapiens): 68.9 µM; GI50 ([17]; Homo sapiens): > 100 µM; GI50 ([18]; Homo sapiens, U-251): > 100 µM; GI50 ([19]; Homo sapiens): > 100 µM; GI50 ([20]; Homo sapiens): > 100 µM; growth and proliferation of human primary cancer cell-lines (in words) [21]: inhibited growth and proliferation; GI50 ([22]; Homo sapiens): > 100 µM
